Experimental data taken from article PMC10600239, “Selective MCL-1 inhibitor ABBV-467 is efficacious in tumor models but is associated with cardiac troponin increases in patients” (Communications Medicine, 2023).
Values joined by “and” are separate entries in the source; they are usually repeats but may differ in a detail not shown here. Equal entries are not always repeated.

Tested on: AMO-1 xenografts
Test: AMO-1 xenograft efficacy (tumor volume, body weight)
Assay type: in vivo, mouse
Protocol: All animal studies were conducted in accordance with the guidelines approved by the Institutional Animal Care and Use Committees of AbbVie. The research protocol was approved by In Vivo Pharmacology at AbbVie prior to study initiation but was not publicly registered or disclosed. Female C.B-17 SCID-beige mice (AMO-1, OPM-2, NCI-H929, and OCI-AML2 xenografts) and female NSG mice (MV4-11-Red.Fluc systemic) were purchased from Charles River Laboratories (Wilmington, MA). Animals were housed in a light cycle-controlled room with HEPA filtration at 22 °C. Animals had nesting and climbing cage topper as the primary environmental enrichment. Animals were inoculated subcutaneously in the right flank with 5 × 10^6 (AMO-1, OPM-2, NCI-H929, and OCI-AML2) or intravenous (IV) with 5 × 10^6 (MV4-11-Red.Fluc). The inoculation volume (0.2 mL) comprised a 50:50 mixture of cells in growth media and Matrigel (BD Biosciences) for subcutaneous injections and 100% phosphate-buffered saline for IV administration. All cell lines used in this publication were authenticated using IDEXX for STR profiling as well as their IMPACT and human IMPACT panels for pathogen screening. Electronic calipers were used to measure the length and width of each tumor 2 to 3 times per week. Tumor volume was estimated by applying the following equation: volume = length × width^2/2. All groups remained blinded during measurements and dosing; only veterinary staff were aware of group identity. When tumors reached approximately 200 mm^3, mice were randomized by match and distributed into treatment and control groups. All xenograft trials were conducted using 5 to 10 mice per group, and all mice were ear tagged and monitored individually throughout the studies. […] Tumor burden in the systemic MV4-11-Red.Fluc experiment was measured using an IVIS® spectrum from PerkinElmer by taking the total photon flux of the entire dorsal side of an individual mouse. […] A background control mouse that was tumor naive but received D-Luciferin was placed in the upper left corner of each image. The total flux from this animal was subtracted from the total flux of each animal present in the image.
For in vivo studies, maximal tumor growth inhibition (TGI) was calculated as the greatest treatment response using the following equation: Maximal TGI = (1 − mean tumor volume of the treated group/mean tumor volume of the vehicle control group) × 100. The tumor growth delay (TGD) percentage was determined as the percentage increase of the median time period for the treatment group to reach an arbitrary tumor volume of 1000 mm^3 relative to the vehicle control group. […] A power analysis was conducted using historical data to determine the number of animals required to yield significance of 0.05 at a 30% difference. […] Data from experiments in vivo were analyzed using the student’s t-test for TGI values and the Mann–Whitney U test for TGD using Excel and GraphPad Prism. Fisher’s exact test was used to probe significance of differences in response frequency.

[1] = 6.25 mg/kg Q7Dx2 IV, SCID-beige female mice, Day 26
[2] = 6.25 mg/kg Q7Dx2 IV, SCID-beige female mice, Day 28
[3] = 6.25 mg/kg Q7Dx2 IV, SCID-beige mice, Day 13 (measure date 10/25/2017, dosing begin 10/26/2017)
[4] = 6.25 mg/kg QDx1 IV, Day 26, n=8
[5] = 6.25 mg/kg QDx1 IV, Day 28, n=8
[6] = 6.25 mg/kg QDx1 IV, SCID-beige mice, Day 21
[7] = 6.25 mg/kg QDx1 IV, SCID-beige mice, Day 23
[8] = 6.25 mg/kg QDx1 IV, SCID-beige mice, Day 23, mean(T)/mean(C)
[9] = 6.25 mg/kg QDx1 IV, SCID-beige mice, Day 23, median(T)/median(C)

With `Cc1c(Cl)c2c(Cl)c(C)c1-c1c(-c3ccc(F)cc3)sc3ncnc(c13)O[C@@H](C(=O)O)Cc1cc(ccc1OCc1ccnc(-c3ccc(OC[C@H]4COCCO4)cc3)n1)OC[C@@H](CN1CCN(C)CC1)O2` [Compound A-1747745.0] the “Xenograft AMO-1 (DSMZ) tumor volume Day 24, Median” value (6.25 mg/kg Q7Dx2 IV, SCID-beige female mice, Day 24) was 183.76 mm³, the “Xenograft AMO-1 (DSMZ) tumor volume Day 26, Mean” value [1] was 300.68 mm³ and the “Xenograft AMO-1 (DSMZ) tumor volume Day 26, Median” value [1] was 173.91 mm³. For the same compound, the “Xenograft AMO-1 (DSMZ) tumor volume Day 26, individual animals” value [1] was 165 mm³ and 890 mm³ and 293 mm³ and 308 mm³ and 143 mm³ and 174 mm³ and 132 mm³, the “Xenograft AMO-1 (DSMZ) (mm³) Day 28, individual animals” value [2] was 242 mm³ and 1605 mm³ and 585 mm³ and 510 mm³ and 266 mm³ and 306 mm³ and 32 mm³ and the “Xenograft AMO-1 (DSMZ) Day 28 Mean” value [2] was 506.48 mm³. The “Xenograft AMO-1 (DSMZ) Day 28 Median” value [2] was 305.62 mm³, the “Xenograft AMO-1 (DSMZ) tumor volume Day 13, Mean” value [3] was 222.44 mm³ and the “Xenograft AMO-1 (DSMZ) tumor volume Day 13, Median” value [3] was 219.48 mm³. The “Xenograft AMO-1 (DSMZ) tumor volume Day 13, individual animals” value [3] was 230 mm³ and 206 mm³ and 247 mm³ and 219 mm³ (2×) and 232 mm³ and 204 mm³, the “Xenograft AMO-1 (DSMZ) (mm³) Day 32 Mean” value (6.25 mg/kg Q7Dx2 IV, group mean tumor volume, Day 32) was 1661.51 mm³ and the “Xenograft AMO-1 (DSMZ) (mm³) Day 32 Median” value (6.25 mg/kg Q7Dx2 IV, group median tumor volume, Day 32) was 1251.91 mm³. The “Xenograft AMO-1 (DSMZ) (mm³) Day 32” value (6.25 mg/kg Q7Dx2 IV, individual animal tumor volume, Day 32) was 1252 mm³ and 3313 mm³ and 2126 mm³ and 1223 mm³ and 2463 mm³ and 1036 mm³ and 218 mm³, the “Xenograft AMO-1 (DSMZ) tumor volume Day 26, Mean” value [4] was 454.97 mm³ and the “Xenograft AMO-1 (DSMZ) tumor volume Day 26, Median” value [4] was 392.97 mm³. The “% T/C (mean) tumor volume Day 26” value (6.25 mg/kg QDx1 IV, Day 26, mean(T)/mean(C)) was 28.88%, the “% T/C (median) tumor volume Day 26” value (6.25 mg/kg QDx1 IV, Day 26, median(T)/median(C)) was 24.60% and the “Xenograft AMO-1 (DSMZ) tumor volume Day 28, Mean” value [5] was 690.68 mm³. The “Xenograft AMO-1 (DSMZ) tumor volume Day 28, Median” value [5] was 578.26 mm³, the “% T/C (mean) tumor volume Day 28” value (6.25 mg/kg QDx1 IV, Day 28, mean(T)/mean(C)) was 33.71% and the “% T/C (median) tumor volume Day 28” value (6.25 mg/kg QDx1 IV, Day 28, median(T)/median(C)) was 29.98%. The “Xenograft AMO-1 (DSMZ) tumor volume Day 26, individual animals” value (6.25 mg/kg QDx1 IV, SCID-beige female mice, Day 26) was 386 mm³ and 701 mm³ and 245 mm³ and 206 mm³ and 598 mm³ and 235 mm³ and 868 mm³ and 400 mm³, the “Xenograft AMO-1 (DSMZ) tumor volume Day 28, individual animals” value (6.25 mg/kg QDx1 IV, SCID-beige female mice, Day 28) was 518 mm³ and 1122 mm³ and 542 mm³ and 307 mm³ and 666 mm³ and 511 mm³ and 1246 mm³ and 614 mm³ and the “Xenograft AMO-1 (DSMZ) Day 21, Mean” value [6] was 175.92 mm³. For the same compound, the “Xenograft AMO-1 (DSMZ) Day 21, Median” value [6] was 202.13 mm³, the “Xenograft AMO-1 (DSMZ) (mm³) Day 21, individual animals” value (6.25 mg/kg QDx1 IV, SCID-beige mice, Day 21, individual tumor volumes) was 202 mm³ (2×) and 236 mm³ and 49 mm³ and 84 mm³ and 144 mm³ and 230 mm³ and 260 mm³ and the “% T/C (mean), Tumor Volume Day 21” value (6.25 mg/kg QDx1 IV, SCID-beige mice, Day 21, mean(T)/mean(C)) was 27.52%. The “% T/C (median), Tumor Volume Day 21” value (6.25 mg/kg QDx1 IV, SCID-beige mice, Day 21, median(T)/median(C)) was 38.38%, the “Xenograft AMO-1 (DSMZ) Day 23 Mean” value [7] was 218.85 mm³ and the “Xenograft AMO-1 (DSMZ) Day 23 Median” value [7] was 225.89 mm³. The “Xenograft AMO-1 (DSMZ) (mm³) Day 23, individual animals” value (6.25 mg/kg QDx1 IV, SCID-beige mice, Day 23, individual tumor volumes) was 209 mm³ and 282 mm³ and 56 mm³ and 156 mm³ and 155 mm³ and 243 mm³ and 349 mm³ and 301 mm³, the “% T/C (mean), body weight Day 23” value [8] was 103.53% and the “% T/C (mean), tumor volume Day 23” value [8] was 20.49%. The “% T/C (median), body weight Day 23” value [9] was 103.53%, the “% T/C (median), tumor volume Day 23” value [9] was 23.21% and the “Xenograft AMO-1 (DSMZ) (mm³) Day 30 (individual animals)” value (6.25 mg/kg QDx1 IV, Day 30, SCID-beige female mice, tumor volume per animal) was 694 mm³ and 1347 mm³ and 555 mm³ and 384 mm³ and 801 mm³ and 782 mm³ and 1535 mm³ and 959 mm³. The “Xenograft AMO-1 (DSMZ) (mm³) Day 30 Mean” value (6.25 mg/kg QDx1 IV, Day 30, group mean) was 882.20 mm³, the “Xenograft AMO-1 (DSMZ) (mm³) Day 30 Median” value (6.25 mg/kg QDx1 IV, Day 30, group median) was 791.67 mm³ and the “Xenograft AMO-1 (DSMZ) (mm³) Day 34 (individual animals)” value (6.25 mg/kg QDx1 IV, Day 34, SCID-beige female mice, tumor volume per animal) was 2680 mm³ and 1975 mm³ and 1296 mm³ and 886 mm³ and 1388 mm³ and 1259 mm³ and 1718 mm³ and 1542 mm³.
